The assay concerns CD2F1 mice, L1210 leukemia ip, survival T/C. The assay can be described thus: NCI In Vivo Anticancer Drug Screen. Data for tumor model L1210 Leukemia (intraperitoneal) in CD2F1 (CDF1) mice. The following applies: higher = longer survival. Summed up:
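Ratio T/C, where T is the treated-group value and C the vehicle-dosed control value, from mice implanted with a transplantable tumor.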

Where [1] appears, read: endpoint: mean survival time, dose: 100.0 mg/kg/injection, schedule: Q04DX003 (ip), vehicle: saline with Tween-80.
[2] abbreviates: endpoint: mean survival time, dose: 200.0 mg/kg/injection, schedule: Q04DX003 (ip), vehicle: saline with Tween-80.
[3] abbreviates: endpoint: mean survival time, dose: 400.0 mg/kg/injection, schedule: Q04DX003 (ip), vehicle: saline with Tween-80.
The mark [4] stands for this setting: endpoint: mean survival time, dose: 100.0 mg/kg/injection, schedule: Q04DX002 (ip), vehicle: saline with Tween-80.
[5] abbreviates: endpoint: mean survival time, dose: 200.0 mg/kg/injection, schedule: Q04DX002 (ip), vehicle: saline with Tween-80.
[6] abbreviates: endpoint: mean survival time, dose: 100.0 mg/kg/injection, schedule: Q01DX009 (ip), vehicle: saline with Tween-80.
Where [7] appears, read: endpoint: mean survival time, dose: 200.0 mg/kg/injection, schedule: Q01DX009 (ip), vehicle: saline with Tween-80.
Where [8] appears, read: endpoint: mean survival time, dose: 400.0 mg/kg/injection, schedule: Q01DX009 (ip), vehicle: saline with Tween-80.

Where “and” joins values, the source holds several entries; their conditions need not be identical. Equal values may be shown once. Toxic doses and inconclusive results are not listed.

For the molecule `CCCCCCCCCCCCCCCC[N+](C)(C)C`, the T/C is, setting by setting: (endpoint: mean survival time, dose: 1.25 mg/kg/injection, schedule: Q01DX009 (ip), vehicle: saline with Tween-80) 96 % of control; (endpoint: mean survival time, dose: 2.5 mg/kg/injection, schedule: Q01DX009 (ip), vehicle: saline with Tween-80) 98 % of control; (endpoint: mean survival time, dose: 5.0 mg/kg/injection, schedule: Q01DX009 (ip), vehicle: saline with Tween-80) 94 % of control and 97 % of control; (endpoint: mean survival time, dose: 5.0 mg/kg/injection, schedule: Q04DX003 (ip), vehicle: saline) 96 % of control; (endpoint: mean survival time, dose: 10.0 mg/kg/injection, schedule: Q04DX003 (ip), vehicle: saline) 98 % of control; (endpoint: mean survival time, dose: 20.0 mg/kg/injection, schedule: Q04DX003 (ip), vehicle: saline) 95 % of control.

With `O=Cc1c2ccc(Cl)cc2nc2ccc(Cl)cc12`, the T/C runs as follows: under setting [1], 101 % of control; under setting [2], 98 % of control; under setting [3], 94 % of control.

`CCCCCCCCCCCCCCOc1ccc(OCCCCCCCCC)cc1`: the T/C runs as follows: (endpoint: mean survival time, dose: 100.0 mg/kg/injection, schedule: Q01DX001 (ip), vehicle: saline with Tween-80) 94 % of control; (endpoint: mean survival time, dose: 200.0 mg/kg/injection, schedule: Q01DX001 (ip), vehicle: saline with Tween-80) 94 % of control; (endpoint: mean survival time, dose: 400.0 mg/kg/injection, schedule: Q01DX001 (ip), vehicle: saline with Tween-80) 95 % of control.

Turning to `O=C(O)C1CCc2c(cnn2-c2ccccc2)C1` (centres undefined), the T/C was 88 % of control under setting [4]; 100 % of control under setting [5]; 92 % of control (endpoint: mean survival time, dose: 400.0 mg/kg/injection, schedule: Q04DX002 (ip), vehicle: saline with Tween-80).

Take `Cc1cn(C2CC(O)C(CO)O2)c(=O)nc1N1CCSCC1` (centres undefined): the T/C (endpoint: median survival time, dose: 12.5 mg/kg/injection, schedule: Q01DX005 (ip), vehicle: distilled water + Tween-80) was 101 % of control; the T/C (endpoint: median survival time, dose: 25.0 mg/kg/injection, schedule: Q01DX005 (ip), vehicle: distilled water + Tween-80) is 103 % of control; the T/C (endpoint: median survival time, dose: 50.0 mg/kg/injection, schedule: Q01DX005 (ip), vehicle: distilled water + Tween-80) was 102 % of control; the T/C (endpoint: median survival time, dose: 100.0 mg/kg/injection, schedule: Q01DX005 (ip), vehicle: distilled water + Tween-80) was 101 % of control; the T/C (endpoint: median survival time, dose: 200.0 mg/kg/injection, schedule: Q01DX005 (ip), vehicle: distilled water + Tween-80) is 102 % of control.

Take `NS(=O)(=O)c1cc(Cl)cc(Cl)c1O`: the T/C is, setting by setting: under setting [2], 91 % of control; under setting [3], 93 % of control.

Turning to `CC(=O)Nc1c(C#N)c(C#N)nn1C`, the T/C (endpoint: mean survival time, dose: 50.0 mg/kg/injection, schedule: Q04DX002 (ip), vehicle: saline with Tween-80) is 98 % of control; the T/C under setting [4] is 106 % of control; the T/C under setting [5] is 102 % of control.

For `O=CC(O)C(O)C(O)C(O)CO` (centres undefined), the T/C was 93 % of control (endpoint: mean survival time, dose: 100.0 mg/kg/injection, schedule: Q01DX009 (ip), vehicle: saline); 91 % of control (endpoint: mean survival time, dose: 200.0 mg/kg/injection, schedule: Q01DX009 (ip), vehicle: saline); 100 % of control (endpoint: mean survival time, dose: 0.2 grams/kg/injection, schedule: Q03DX003 (ip), vehicle: water); 95 % of control (endpoint: mean survival time, dose: 400.0 mg/kg/injection, schedule: Q01DX009 (ip), vehicle: saline); 108 % of control (endpoint: mean survival time, dose: 0.4 grams/kg/injection, schedule: Q03DX003 (ip), vehicle: water); 107 % of control (endpoint: mean survival time, dose: 0.8 grams/kg/injection, schedule: Q03DX003 (ip), vehicle: water). Also, the T/C runs as follows: (endpoint: mean survival time, dose: 1.5 grams/kg/injection, schedule: Q03DX003 (ip), vehicle: water) 100 % of control; (endpoint: mean survival time, dose: 3.0 grams/kg/injection, schedule: Q03DX003 (ip), vehicle: water) 101 % of control; (endpoint: mean survival time, dose: 6.0 grams/kg/injection, schedule: Q03DX003 (ip), vehicle: water) 100 % of control; (endpoint: mean survival time, dose: 12.0 grams/kg/injection, schedule: Q03DX003 (ip), vehicle: water) 106 % of control; (endpoint: median survival time, dose: 75.0 mg/kg/injection, schedule: Q01DX009 (ip), vehicle: saline) 101 % of control; (endpoint: median survival time, dose: 150.0 mg/kg/injection, schedule: Q01DX009 (ip), vehicle: saline) 101 % of control. Also, the T/C by setting is: (endpoint: median survival time, dose: 300.0 mg/kg/injection, schedule: Q01DX009 (ip), vehicle: saline) 100 % of control; (endpoint: median survival time, dose: 600.0 mg/kg/injection, schedule: Q01DX009 (ip), vehicle: saline) 100 % of control; (endpoint: median survival time, dose: 1200.0 mg/kg/injection, schedule: Q01DX009 (ip), vehicle: saline) 102 % of control.

As to `Nc1ncnc2c1ncn2[C@@H](/C=N\O)O[C@@H](/C=N\O)CO`, the T/C by setting is: (endpoint: median survival time, dose: 12.5 mg/kg/injection, schedule: Q01DX005 (ip), vehicle: water) 100 % of control; (endpoint: median survival time, dose: 25.0 mg/kg/injection, schedule: Q01DX005 (ip), vehicle: water) 96 % of control; (endpoint: median survival time, dose: 50.0 mg/kg/injection, schedule: Q01DX005 (ip), vehicle: water) 103 % of control; (endpoint: median survival time, dose: 100.0 mg/kg/injection, schedule: Q01DX005 (ip), vehicle: water) 97 % of control; (endpoint: median survival time, dose: 200.0 mg/kg/injection, schedule: Q01DX005 (ip), vehicle: water) 90 % of control.

For `O=C(OC1COC(OC(=O)c2ccccc2)C(OC(=O)c2ccccc2)C1OC(=O)c1ccccc1)c1ccccc1` (centres undefined), the T/C by setting is: under setting [6], 97 % of control; under setting [1], 101 % of control; under setting [7], 95 % of control; under setting [2], 86 % of control; under setting [8], 97 % of control; under setting [3], 95 % of control.

On to `CC(=O)O[C@H]1CC[C@@]2(C)[C@@H](CC[C@@H]3[C@@H]2CC(=O)[C@]2(C)[C@@H]4[C@H](C[C@@H]32)O[C@]2(CC[C@@H](C)CO2)[C@H]4C)C1`, for which the T/C is 96 % of control (endpoint: mean survival time, dose: 100.0 mg/kg/injection, schedule: Q01DX001 (ip), vehicle: saline); 101 % of control (endpoint: mean survival time, dose: 200.0 mg/kg/injection, schedule: Q01DX001 (ip), vehicle: saline); 98 % of control (endpoint: mean survival time, dose: 400.0 mg/kg/injection, schedule: Q01DX001 (ip), vehicle: saline).

With `COc1cccc2c1C(=O)c1c(O)c3c(c(O)c1C2=O)CC(O)(/C(C)=N/NC(=O)CCCCC(=O)N/N=C(\C)C1(O)Cc2c(O)c4c(c(O)c2C(OC2CC(N)C(O)C(C)O2)C1)C(=O)c1c(OC)cccc1C4=O)CC3OC1CC(N)C(O)C(C)O1` (centres undefined), the T/C (endpoint: median survival time, dose: 1.5 mg/kg/injection, schedule: Q01DX009 (ip), vehicle: water) was 116 % of control and 123 % of control; the T/C (endpoint: median survival time, dose: 3.0 mg/kg/injection, schedule: Q01DX009 (ip), vehicle: water) is 121 % of control; the T/C (endpoint: median survival time, dose: 6.25 mg/kg/injection, schedule: Q01DX009 (ip), vehicle: water) was 153 % of control; the T/C (endpoint: median survival time, dose: 12.5 mg/kg/injection, schedule: Q01DX009 (ip), vehicle: water) is 108 % of control; the T/C (endpoint: median survival time, dose: 24.0 mg/kg/injection, schedule: Q01DX009 (ip), vehicle: water) is 97 % of control; the T/C (endpoint: median survival time, dose: 25.0 mg/kg/injection, schedule: Q01DX009 (ip), vehicle: water) is 87 % of control.

In the case of `COC1(OC)C2C=CC1CC2`, the T/C was 105 % of control (endpoint: mean survival time, dose: 12.5 mg/kg/injection, schedule: Q01DX009 (ip), vehicle: saline with Tween-80); 100 % of control (endpoint: mean survival time, dose: 25.0 mg/kg/injection, schedule: Q01DX009 (ip), vehicle: saline with Tween-80); 109 % of control (endpoint: mean survival time, dose: 50.0 mg/kg/injection, schedule: Q01DX009 (ip), vehicle: saline with Tween-80); 103 % of control under setting [6]; 103 % of control under setting [7]; 114 % of control under setting [8].

As for `CCCCC/C(C)=C(/C#N)C(=O)OCC`, the T/C is, setting by setting: (endpoint: mean survival time, dose: 75.0 mg/kg/injection, schedule: Q01DX001 (ip), vehicle: saline) 97 % of control; (endpoint: mean survival time, dose: 150.0 mg/kg/injection, schedule: Q01DX001 (ip), vehicle: saline) 96 % of control; (endpoint: mean survival time, dose: 300.0 mg/kg/injection, schedule: Q01DX001 (ip), vehicle: saline) 97 % of control.

Source of the values: PubChem BioAssay AID256 (DTP/NCI, 2004).
